From patent US10751387B2, “Pharmacological therapy for neuronopathic Gaucher disease” (priority 2016, dated 2020)
Where “and” joins values, the source holds several entries; their conditions need not be identical. Identical values can stand only once.

Assays:
CBE-N2a cells [1] = assay: Cytosolic calcium level measurement with Fura-2 after caffeine; assay type: cell-based, mouse; details: CBE-N2a cells vs untreated; dantrolene 12.5 μM, ryanodine 10 μM, G6 0.8 μM, 5 days; caffeine 10 mM
Protocol: (§4) N2a cells were maintained in DMEM/10% FBS (Gibco) medium. Neuronal differentiation of N2a was carried out in the differentiation medium containing 0.5% FBS, 10 μM retinoic acid, 50 ng/ml GDNF (Alomore lab) and 1 mM dbcAMP in DMEM for 3 days (37). The differentiated N2a cells were treated with 2 mM CBE for 5 days in the differentiation medium. […] The medium with the reagents was changed every 2 days. […] Cell viability after each drug treatment was measured by CellTiter-Fluoirm Cell Viability assay (Promega). […] The cells were from same passage and treated at the same time for all the experiments.
Intracellular calcium levels were determined using the Fura-2 QBT Calcium Kit (Molecular Devices, Sunnyvale, Calif.) on 96 well plates by M5 SpectraMax plate reader (Molecular Devices). N2a cells were seeded in each well (20,000/well) with differentiation medium (0.5% FBS, DMEM, 10 AM retinoic acid, 1 mM dbcAMP) for 72 h (37). […] The cell medium was replaced every two days. The treated cells were incubated with Fura-2 QBT dye at 37 C for 1 h for Fura-2 QBT uptake (Fura2 QBT® calcium kit protocol, Molecular Devices). Caffeine (10 mM) was used as an ER calcium efflux stimulant in the assay (38,39). The plate reader setting was 340/380 nm (excitation) and 510 nm (emission). Baseline calcium levels were measured prior to caffeine addition (−30 s). Cytosolic calcium levels were recorded every 30 s for duration of 300 s after addition of caffeine. Relative cytosolic calcium levels were determined with the values at 300 s endpoint minus Os baseline. Relative cytosolic calcium level [Fura-2 AF/F (340/380510 nm] for control or treated cells was calculated by Fura-2 fluorescence unit (FU) measured at 340 nm/510 nm (AF=RFU/340 at 300 s end point minus baseline RFU/340 at 0 s) divided by FU at 380 nm/510 nm (F=RFU/380 at 300 s-baseline RFU/380 at 0 s) (Fura2 QBT® calcium kit protocol, Molecular Devices) and normalized to protein level in cells. Data were collected and analysed by SoftMax Pro software (Molecular Devices) and graphical charts were generated by Graphpad Prism 6.0.

Ryr3 [2] = assay: Immunoblot of Ryr3 in 4L;C* cerebrum; assay type: in vivo, mouse; details: 44 days of age, untreated 9%
Protocol: (§1) Half of mice brain (sagittal cut) tissues were homogenized in M-PER Mammalian Protein Extraction Reagent and subjected to electrophoresis. Ryr proteins (−500 kD) in tissues lysate were separated on 3-8% NuPAGE gel running at 90V for 12 h at 4° C. in acetate buffer. 13-actin was resolved on 4-12% Bis-Tris gel. The proteins were transferred to PVDF membrane using iBlot 2 gel transfer device following manufacturer's instructions. The blots were incubated with anti-mouse Ryr3 monoclonal antibody (1/250) or anti-13-actin (1:5000) overnight at 4° C. in 1.5% BSA/1.5% milk/PBS buffer. LC3, CAMK IV and calmodulin were separated on 16% Tris-glycine gel (Novex) and detected by anti-LC3 (1:1000), anti-CAMK IV (1:500) or anti-CAM (1:1000), respectively. The signals were detected with either ECL detection reagent or AP Conjugate Substrate Kit according to manufacturer's instructions. Band intensities on immunoblots were quantitated by Image J (NIH, Baltimore, Va.).

4L;C* mice [3] = assay: Gait analysis in nGD mouse model
Protocol: Progression of the neurobehavioural phenotype was assessed by gait analysis to determine sensorimotor function (77,78). Mice were trained to walk through a narrow alley leading into their home-cage. Once trained, paper was placed along the alley floor and the hind paws of each mouse were brushed with nontoxic paint. The mice were then placed at the beginning of the alley. As they walked into their home-cage they left their paw prints on the paper underneath. Stride length and width were determined by measuring the distance between hind paw prints. The 4L;C* and control mice, untreated and non-4L;C* littermates were tested for gait at 30 and 40 days of age.

CAMK IV = assay: Immunoblot of CAMK IV in 4L;C* cerebrum; assay type: in vivo, mouse; design: reference not given here; details: untreated 61% of WT level
Protocol: as §1

CBE-N2a cells [4] = assay: Substrate (GC, GS) levels in nGD cell model (CBE-N2a) by ESI-LC-MS/MS; assay type: cell-based, mouse; details: 5 days
Protocol: (§2) N2a cells were maintained in DMEM/10% FBS (Gibco) medium. Neuronal differentiation of N2a was carried out in the differentiation medium containing 0.5% FBS, 10 μM retinoic acid, 50 ng/ml GDNF (Alomore lab) and 1 mM dbcAMP in DMEM for 3 days (37). The differentiated N2a cells were treated with 2 mM CBE for 5 days in the differentiation medium. […]. The medium with the reagents was changed every 2 days. The differentiation status of the neuronal cells was confirmed by anti-Map2 (mature neuron) or anti-Nestin (undifferentiated neuronal cells) antibody staining. Cell viability after each drug treatment was measured by CellTiter-Fluoirm Cell Viability assay (Promega). […]. The cells were from same passage and treated at the same time for all the experiments.
(§3) Glycosphingolipids in mouse brains and N2a cells were extracted with chloroform and methanol as described (83). GC and GS content in the extracts was analysed by ESI-LC-MS/MS using a Waters Quattro Micro API triple quadrupole mass spectrometer (Milford, Mass.) interfaced with Acquity UPLC system as described (35). The concentration of GC and GS in the brain was normalized to mg tissue weight and in the cells was normalized by mg protein in the cell lysate.

[5] = Body and organ weights of treated mice; assay type: in vivo, mouse; details: IP 10 mg/kg three days per week
Ryr1 and Ryr3 = details: reference 58; cited from earlier work
4L;C* mice [6] = assay: Survival / life span in nGD mouse model; details: IP 10 mg/kg three days per week
Protocol: The data are presented as mean±SEM and were analysed by Student's t-test or one-way ANOVA with post-hoc Tukey test using GraphPad Prism 6. The level of significance was set at P<0.05. Survival analysis was performed using Kaplan-Meier and the Mantel-Cox tests.

Ryr3 [7] = assay: Immunoblot of Ryr3 in CBE-N2a cells; assay type: cell-based, mouse; details: dantrolene 12.5 μM, untreated 47%
Protocol: as §2
as §1, with “13-actin was resolved on 4-12% Bis-Tris gel. The proteins were transferred to PVDF membrane using iBlot 2 gel transfer device following manufacturer's instructions. The blots were incubated with anti-mouse Ryr3 monoclonal antibody (1/250) or anti-13-actin (1:5000) overnight at 4° C. in 1.5% BSA/1.5% milk/PBS buffer.” left out

N2a cells = assay: Substrate (GC, GS) levels in N2a cells by ESI-LC-MS/MS; assay type: cell-based, mouse; details: G6 0.8 μM, 5 days
Protocol: as §2, §3

CBE-N2a cells [8] = assay: Seahorse mitochondrial function assay (OCR) in cells; assay type: cell-based, mouse; details: CBE-N2a cells vs untreated CBE-N2a; dantrolene 12.5 μM, G6 0.8 μM
Protocol: as §4
Cell numbers were determined using a haemocytometer. Prior to mitochondrial function assay on XF96 Extracellular Flux Analyzers (Seahorse Biosciences), the cells in the wells of XF96 assay plates were washed by gently adding warm assay medium to the side of each well. […] The respiration parameters were calculated by subtracting the average respiration rates before and after the addition of the electron transport inhibitors: oligomycin, FCCP and antimycin A. The parameters include basal respiration (baseline respiration minus antimycin A post injection respiration), ATP production (baseline respiration minus oligomycin post injection respiration), and maximal respiratory (FCCP stimulated respiration minus antimycin A post injection respiration). […]

ryanodine receptor = details: vendor listing (Sigma); cited from earlier work

| Molecule | Cytosolic calcium level above baseline after caffeine [Fura-2 ΔF/F] (CBE-N2a cells [1]) | Ryr3 protein level, % of WT (Ryr3 [2]) [%] | Base stride width (4L;C* mice [3]; IP 10 mg/kg three days per week from postnatal day 5, 30 and 40 days of age, vs untreated) | Stride length increase compared to untreated 4L;C* mice (4L;C* mice [3]; IP 10 mg/kg three days per week, 40 days of age) [%] | CAMK IV expression increase (CAMK IV) [%] | GC and GS levels (CBE-N2a cells [4]; CBE-N2a cells, dantrolene 12.5 μM, G6 0.8 μM) | Body or organ weights [5] | Ryr specificity (Ryr1 and Ryr3) | Life span / survival prolonged compared to untreated 4L;C* mice (4L;C* mice [6]; 10 mg/kg) | Median survival days (4L;C* mice [6]; untreated 44 days) [days] | Ryr3 protein level, % of WT level (Ryr3 [7]) [%] | GC reduction to % of untreated levels (N2a cells) [%] | Oxygen Consumption Rate (OCR: ATP production, basal respiration, maximal respiration) (CBE-N2a cells [8]) | GS level (CBE-N2a cells [4]; CBE-N2a cells vs untreated) | GC reduction to % of untreated levels (CBE-N2a cells [4]; CBE-N2a cells, G6 0.8 μM) [%] | Ryanodine receptor antagonist concentration (ryanodine receptor) [µM] |
| --- | --- | --- | --- | --- | --- | --- | --- | --- | --- | --- | --- | --- | --- | --- | --- | --- |
| O=C1CN(/N=C/c2ccc(-c3ccc([N+](=O)[O-])cc3)o2)C(O)=N1 [Dantrolene] | significantly reduced | 77 | significantly reduced | 30 | 28 | did not affect | did not affect | specific to Ryr1 and Ryr3 | 12.3% and 12.7% | 50 | 76 |  |  |  |  |  |
| CC(C)(NC(=O)OC1CN2CCC1CC2)c1cccc(-c2ccc(F)cc2)c1 (stereo not drawn) [G6] | significantly lower |  |  |  |  |  |  |  |  |  |  | 7 | significant increases | significantly decreased | 26 |  |
| Ryanodine | significant reduction |  |  |  |  |  |  |  |  |  |  |  |  |  |  | > 10 |
